Assay results as given in publication PMC9909341, “TLQP-21 is a low potency partial C3aR activator on human primary macrophages” (Frontiers in Immunology, 2023).
pEC50: −log10 of the molar value.

Tests used:
[1] = tested on: HMDM (endogenous human C3aR); type: cell-based; conditions: for pEC50: primary human macrophages, 50,000/well, AlphaLISA p-ERK1/2, n = 4 donors, read-out: EC50 (pERK1/2), HMDM
Description: HMDMs were generated and cultured as previously described ([20]), with experiments approved by The University of Queensland Human Research Ethics Committee. Briefly, human buffy coat blood from anonymous healthy donors was obtained through the Australian Red Cross Blood Service (Brisbane, Australia). Human CD14+ monocytes were isolated from blood using Lymphoprep density centrifugation (STEMCELL, Melbourne, Australia) followed by CD14+ MACS magnetic bead separation (Miltenyi Biotec, Sydney, Australia). The isolated monocytes were differentiated for 7 days in Iscove’s Modified Dulbecco’s Medium supplemented with 10% FBS, 100 IU/ml penicillin, 100 μg/ml streptomycin and 15 ng/ml recombinant human macrophage colony stimulating factor (BioLegend, San Diego, USA) on 10 mm square dishes (Bio-strategy, Brisbane, Australia). Non-adherent cells were removed by washing with DPBS, and the adherent differentiated HMDMs were harvested by gentle scraping.
(§1) Ligand-induced ERK1/2 phosphorylation was assessed using the AlphaLISA Surefire Ultra p-ERK1/2 (Thr202/Tyr204) kit (PerkinElmer, Melbourne, Australia) following the manufacturer’s protocol as previously described ([18], [20], [22]). Briefly, CHO-K1, CHO-C3aR, CHO-C5aR1, HMDMs (50,000/well) or BMDMs (90,000/well) were seeded in tissue culture-treated 96-well plates (Corning, Corning, USA) for 24 h and serum-starved overnight. All ligand dilutions were prepared in serum-free medium (SFM) containing 0.1% BSA. For inhibition assays, cells were pre-treated with the following ligands (5 µM SB290157, or respective concentrations of hC3a, mC3a, hC5a, hTLQP-21, and mTLQP-21) or the solvent-only control for 30 min before agonist (hC3a, hTLQP-21 and mTLQP-21) addition. The concentration and identity of the ligands are described in detail in the figure legends. For stimulation, cells were treated with ligands at the indicated concentrations for 10 min at RT and then immediately lysed using AlphaLISA lysis buffer on a microplate shaker (450 rpm, 10 min). For the detection of phospho-ERK1/2 content, cell lysate (5 μL/well) was transferred to a 384-well ProxiPlate (PerkinElmer, Melbourne, Australia) and added to the donor and acceptor reaction mix (2.5 μL/well, respectively), followed by a 2-h incubation at RT in the dark. On a Tecan Spark 20M (Tecan, Männedorf, Switzerland), the plate was measured using standard AlphaLISA settings.
(§2) All experiments were conducted in triplicates and repeated on three separate occasions unless otherwise specified. Data was analysed using GraphPad software (Prism 9.1). Data from each individual repeat was normalised accordingly (as specified in the figure legends) before being combined and expressed as mean ± standard error of the mean (S.E.M.) unless otherwise described. For all dose-response studies, logarithmic concentration-response curves were plotted using combined data and analysed to determine the respective potency values. Statistical analysis was performed using two-way ANOVA with Dunnett’s post hoc analysis. Donor-matched comparisons were made for HMDM experiments. Differences were deemed significant when p < 0.05.
Figure 3 Agonistic and antagonistic activities of hTLQP-21 and mTLQP-21 in human monocyte-derived macrophages. Serum-starved HMDMs (50,000/well) were (A) stimulated with medium or respective ligands at the indicated concentrations for 10 min and then lysed, or (B) pre-treated with 5 µM SB290157 for 30 min prior to stimulation. (C) HMDMs were pre-treated with 10 μM hTLQP-21 or mTLQP-21 for 30 min before being stimulated with respective concentrations of human C3a. (D) HMDMs were pre-treated with 10 nM hC3a, 10 μM hTLQP-21 or mTLQP-21 for 30 min before being stimulated with the same concentrations of the above ligands for 10 min and then lysed. (E) HMDMs were pre-treated with 10 μM hTLQP-21 or mTLQP-21 for 30 min before being stimulated with respective concentrations of human C5a for 10 min and then lysed. […]

human C3aR = molecular target: T1, human C3aR (Homo sapiens, UniProt Q16581); assay: phospho-ERK1/2 assay in CHO-C3aR cells; type: cell-based; conditions: n = 3-4; for pEC50: CHO cells stably expressing human C3aR, serum-starved, AlphaLISA p-ERK1/2, combined data, read-out: EC50 (pERK1/2), CHO-C3aR
T1 sequence (Q16581 1-482): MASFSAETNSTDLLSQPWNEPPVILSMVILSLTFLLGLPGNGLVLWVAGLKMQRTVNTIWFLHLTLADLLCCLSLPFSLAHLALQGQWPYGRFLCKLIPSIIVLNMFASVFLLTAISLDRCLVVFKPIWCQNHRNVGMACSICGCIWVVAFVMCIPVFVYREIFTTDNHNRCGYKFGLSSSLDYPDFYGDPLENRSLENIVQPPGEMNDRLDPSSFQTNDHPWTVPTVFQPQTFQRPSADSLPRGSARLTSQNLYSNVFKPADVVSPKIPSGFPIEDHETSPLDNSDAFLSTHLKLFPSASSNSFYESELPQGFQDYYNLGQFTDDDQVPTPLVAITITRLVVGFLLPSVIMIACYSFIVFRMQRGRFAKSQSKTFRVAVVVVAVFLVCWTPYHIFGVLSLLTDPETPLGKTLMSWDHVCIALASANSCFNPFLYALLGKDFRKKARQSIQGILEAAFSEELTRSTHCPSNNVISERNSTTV
Protocol: (§3) Cell lines for this study were cultured as previously described ([20]). Non-transfected CHO-K1 cells or CHO cells stably expressing the human C3aR (CHO-C3aR; Product # ES-730-C, PerkinElmer, Melbourne, Australia) were maintained in Ham’s F12 medium containing 10% foetal bovine serum (FBS), 100 IU/ml penicillin and 100 μg/ml streptomycin, with additional 400 μg/ml G418 (In vivoGen, San Diego, USA) added for CHO-C3aR cell culture. HEK293 cells were maintained in DMEM medium containing 10% FBS, 100 IU/ml penicillin and 100 μg/ml streptomycin. All cell lines were maintained in T175 flasks (37°C, 5% CO2) and subcultured at 80-90% confluency using 0.05% trypsin-EDTA in DPBS.
as §1, §2
Figure 1 hTLQP-2 and mTLQP-21 activate ERK signalling in CHO-K1 and CHO-C3aR cells. hTLQP-21, mTLQP-21 and plasma-derived human C3a were tested in (A) non-transfected CHO-K1 or (B) CHO cells stably expressing human C3aR. CHO cells were serum-starved overnight and then stimulated with various ligands for 10 min before being lysed. The phospho-ERK1/2 content in the lysate was measured and expressed as fold-baseline before being combined. The maximum relative pERK1/2 activity induced by each ligand is shown in (C). Data represent mean ± S.E.M. of triplicate measurements from 3-4 independent experiments (n = 3-4). Two-way ANOVA with Dunnett’s post hoc analysis. *P < 0.05, ***P < 0.001, ****P < 0.0001. Ligand treated versus medium treated cells for each cell line.

[2] = tested on: CHO-K1 cells (endogenous C3aR); assay: phospho-ERK1/2 assay in non-transfected CHO-K1 cells; type: cell-based, Chinese hamster
Protocol: as §3
Ligand-induced ERK1/2 phosphorylation was assessed using the AlphaLISA Surefire Ultra p-ERK1/2 (Thr202/Tyr204) kit (PerkinElmer, Melbourne, Australia) following the manufacturer’s protocol as previously described ([18], [20], [22]). Briefly, CHO-K1, CHO-C3aR, CHO-C5aR1, HMDMs (50,000/well) or BMDMs (90,000/well) were seeded in tissue culture-treated 96-well plates (Corning, Corning, USA) for 24 h and serum-starved overnight. […] On a Tecan Spark 20M (Tecan, Männedorf, Switzerland), the plate was measured using standard AlphaLISA settings.
as §2, with “Statistical analysis was performed using two-way ANOVA with Dunnett’s post hoc analysis. Donor-matched comparisons were made for HMDM experiments. Differences were deemed significant when p < 0.05.” left out
Figure 1 hTLQP-2 and mTLQP-21 activate ERK signalling in CHO-K1 and CHO-C3aR cells. hTLQP-21, mTLQP-21 and plasma-derived human C3a were tested in (A) non-transfected CHO-K1 or (B) CHO cells stably expressing human C3aR. […] The phospho-ERK1/2 content in the lysate was measured and expressed as fold-baseline before being combined. […]

| Substance | logEC50 ± SE (pERK1/2), HMDM ([1]; HMDM, 10 min stimulation at RT, n = 3-4) | pEC50 ([1]; 10 min stimulation at RT) | % C3a activity ± SE, HMDM ([1]; relative to hC3a, n = 3-4) [%] | maximum relative pERK1/2 activity, CHO-C3aR (human C3aR; 10 min, Figure 1C) [fold baseline] | pEC50 (human C3aR; 10 min stimulation at RT) | logEC50 ± SE (pERK1/2), CHO-C3aR (human C3aR; CHO-C3aR, 10 min stimulation at RT) | % C3a activity ± SE, CHO-C3aR (human C3aR; efficacy relative to hC3a, fold baseline normalised) [%] | maximum relative pERK1/2 activity, CHO-K1 ([2]; 10 min, Figure 1C, n = 3-4) [fold baseline] | relative efficacy of ERK signalling in CHO-K1 versus CHO-C3aR ([2]; fold lower than in CHO-C3aR cells) [fold] | ERK1/2 phosphorylation, CHO-K1 ([2]; 10 min stimulation at RT, n = 3-4) |
| --- | --- | --- | --- | --- | --- | --- | --- | --- | --- | --- |
| C3a: Table 1 label: human C3a in CHO-C3aR and HMDM, recombinant mouse C3a in BMDM | -9.9 ± 0.1 | 9.96 | 100 ± 6.2 | 7.3 | 9.82 | -9.8 ± 0.1 | 100 ± 2.8 | 2.7 | 2.6 |  |
| hC3a: purified (plasma-derived) human C3a, purchased from Merck |  | 9.96 |  |  | 9.82 |  |  |  |  | significantly triggered ERK1/2 phosphorylation in CHO-K1 cells |
